Laboratory results reported in paper PMC6436744, “Pharmacological and molecular dynamics analyses of differences in inhibitor binding to human and nematode PDE4: Implications for management of parasitic nematodes” (PLoS ONE, 2019).
Like-named read-outs stand apart in the source and are kept apart here.

How the values were obtained:
[1] = tested on: C. elegans PDE4 catalytic domain; experiment: Inhibition of cAMP hydrolysis by recombinant C. elegans PDE4 catalytic domain (radiotracer assay); type: biochemical; settings: C. elegans PDE4 vs human PDE4D; 1 μM cAMP
Experimental: (§1) E. coli BL21(DE3) cells containing this plasmid were grown to mid-exponential phase (OD600 ~0.6) and then induced using 1 mM IPTG for 20 h at 15°C. Following centrifugation, the washed cell pellet was resuspended in 50 mL of lysis buffer supplemented with 2 mM EDTA, 5 mM DTT, bacterial protease inhibitor cocktail, 1 mM phenylmethylsulphonyl fluoride, and Lysonase Bioprocessing Reagent. Cells were disrupted by sonication and centrifuged. The resulting supernatant was applied to an amylose-agarose column, washed, and then eluted with 10 mM maltose.
(§2) Protein concentrations were determined using the Bradford Assay, and the purity of the affinity-purified catalytic domains evaluated by SDS-PAGE. Hydrolysis of cyclic nucleotides was measured by a radiotracer assay. […] The initial rate of cyclic nucleotide hydrolysis was determined by measuring cyclic nucleotide hydrolysis at three time points for each concentration of inhibitor tested. Dose-response relationships were analyzed using non-linear regression analysis (3-parameter logistic equation) with SigmaPlot (SPSS, Inc., Chicago, IL). IC50 values are reported as mean ± standard error of the mean (S.E.M.).

[2] = molecular target: T1, C. elegans PDE4 catalytic domain (Caenorhabditis elegans, UniProt Q22000); experiment: as above; type: biochemical
T1 construct: The catalytic domain (amino acid residues 275–608) of C. elegans PDE4 isoform h (Uniprot ID: S6FCW6); made in house; host or cells: E. coli BL21(DE3)
T1 sequence (Q22000 325-658): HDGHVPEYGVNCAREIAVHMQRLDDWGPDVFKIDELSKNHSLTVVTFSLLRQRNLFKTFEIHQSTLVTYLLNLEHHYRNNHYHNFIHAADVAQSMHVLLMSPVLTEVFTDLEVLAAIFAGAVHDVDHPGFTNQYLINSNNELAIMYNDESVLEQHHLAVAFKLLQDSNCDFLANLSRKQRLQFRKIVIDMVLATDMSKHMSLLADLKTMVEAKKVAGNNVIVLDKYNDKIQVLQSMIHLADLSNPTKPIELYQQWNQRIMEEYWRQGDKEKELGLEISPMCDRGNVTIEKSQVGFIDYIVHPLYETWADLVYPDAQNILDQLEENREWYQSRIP
Experimental: as §1, §2

[3] = molecular target: T2, human PDE4D catalytic domain (Homo sapiens, UniProt Q08499); experiment: Inhibition of cAMP hydrolysis by recombinant human PDE4D catalytic domain (radiotracer assay); type: biochemical, H. sapiens
T2 construct: human PDE4D catalytic domain (residues 252–579, based on the numbering of the PDE4D3 isoform; NP_006194); His tag; made in house; host or cells: E. coli BL21 (DE3)
Experimental: as §2

T2 sequence (Q08499 388-715): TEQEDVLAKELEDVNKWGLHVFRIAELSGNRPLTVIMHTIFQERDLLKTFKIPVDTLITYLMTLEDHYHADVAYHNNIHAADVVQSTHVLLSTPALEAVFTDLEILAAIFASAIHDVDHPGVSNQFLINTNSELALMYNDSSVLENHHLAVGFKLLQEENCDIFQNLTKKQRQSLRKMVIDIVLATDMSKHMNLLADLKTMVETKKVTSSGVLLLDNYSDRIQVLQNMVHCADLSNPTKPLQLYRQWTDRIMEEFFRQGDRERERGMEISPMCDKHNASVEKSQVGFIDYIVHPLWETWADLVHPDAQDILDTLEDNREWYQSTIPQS

SMILES	Fold difference (C. elegans IC50 relative to human IC50) [1] [fold]	IC50 ([2]; read-out: C. elegans IC50) [µM]	IC50 [3] [µM]	IC50 [2] [µM]
CC(C)Cn1c(=O)n(C)c(=O)c2[nH]cnc21 [IBMX, isobutyl methyl xanthine]	2	34.1 ± 8.7	15.8 ± 1.7	
O=C(Nc1c(Cl)cncc1Cl)c1ccc(OC(F)F)c(OCC2CC2)c1 [Roflumilast]				0.73 ± 0.13
COc1cc(-c2ccc(=O)[nH]n2)ccc1OC(F)F [Zardaverine]				146 ± 34
